According to patent US5912258A, “Thiadiazoleamide derivative and anti-ulcer drug” (Shiseido Co., Ltd., priority 1998, dated 1999):

How the values were obtained:
[1] = system: isolated gastric fundic gland; assay: CAP: Acid Secretion Inhibition Test in vitro ([^14 C]-aminopyrine uptake); format: cell-based, male Japanese White rabbit; conditions: rabbit isolated gastric fundic gland, 10^-5 M, histamine 10^-5 M; for inhibition at 10 µM: Oryctolagus cuniculus, read-out: CAP: Acid secretion inhibitory rate
Description: CAP: Acid Secretion Inhibition Test in vitro (i) Meaning The acid secretion inhibitory activity in a cell level is studied. It can also be used for studying the mechanism of the effect. (ii) Method (ii)-(a) Preparation of isolated gastric gland suspension First, an isolated gastric fundic gland sample was prepared. Namely, a male Japanese White rabbit (2.5 to 3 kg) was anesthetized to death with Nembutal™ and then the abdomen was incised. Immediately thereafter, the stomach was removed and, after its pyloric and cardiac antrum were severed, incised along its greater curvature into two sheets. The gastric contents adhering to the mucosal surface was washed out with ice-cooled PBS (-) and then carefully washed therein. The gastric wall was spread on a cork board with its mucosal surface facing up and the feed and mucus thereon were completely removed with sterile gauze. The mucosa was separated therefrom by a spatula and then collected in ice-cooled PBS (-). After being washed twice with PBS (-), the mucosa was minced into 2-3 mm^3 pieces by scissors. These pieces were further washed twice with a nutrient solution. The nutrient solution comprises 132.4 mM of NaCl, 5.4 mM of KCl, 5 mM of Na2 HPO4 ·12H2 O, 1 mM of NaH2 PO4 ·2H2 O, 1.2 mM of MgSO4, 1 mM of CaCl2, 25 mM of HEPES, 2 mg/ml of glucose, and 1 mg/ml of BSA. Into 70 ml of the nutrient solution containing 1 mg/ml of collagenase, minced mucosal pieces were dispersed and intensely stirred in a conical flask with a stirrer at 37° C. for 40 to 60 minutes. […] The nutrient solution was added to the reaction solution so as to attain the total amount of about 200 ml. After being filtered through a mesh, the suspension was divisionally introduced into 50 ml centrifuge tubes and left for 15 minutes such that gastric fundic gland was deposited. The supernatant was repeatedly removed by an aspirator, dispersed in the nutrient solution, and then left such that the gastric fundic gland was washed three times. At this time, without using a pipette, the suspension was alternately introduced into two centrifuge tubes so as to effect dispersion. The number of cells was counted under microscope and adjusted to 1.6×10^6 cells/ml. (ii)-(b) [^14 C]-aminopyrine uptake test Then [^14 C]-aminopyrine uptake test was performed. After an Eppendorf tube was weighed, 10 μl (final concentration: 10^-5 M) of histamine dissolved in the above-mentioned nutrient solution, 10 μl (final concentration: 10 ^-5 M) of the test compound dissolved in DMSO, and 10 μl (final concentration: 0.05 μCi/ml) of [^14 C]-aminopyrine diluted with the nutrient solution were introduced therein and then 970 μl of the isolated gastric fundic gland suspension prepared above were added thereto. Subsequently, this mixture was shaken at 37° C. for 40 minutes at 125 cycles/minute. After being centrifuged for 30 minutes 200 μl of its supernatant was collected into a mini-vial, while the rest was removed by an aspirator. The gland pellet was completely dried as the tube with its lid being opened was kept for one night in a drying oven at 80° C. and then the weight was determined at room temperature. Then 100 μl of 1N KOH was added thereto an the tube with its lid being closed was treated at 60° C. for 1 to 2 hours so as to dissolve the pellet. Then, the contents thereof were transferred to a mini-vial. Into the mini-vial containing the supernatant or gland pellet, 4 ml of Atomlite™ was added and then the radioactivity was measured by a liquid scintillation counter. Here, after the radioactivity of the gland pellet was corrected by using a sample in which 20 mM of NaSCN was added so as to cancel the hydrogen ion concentration gradient, the integration ratio of aminopyrine specifically trapped by the gland pellet was calculated. This experiment was performed in duplicate. (ii)-(c) Calculation of the accumulation rate of aminopyrine Here, its principle will be briefly explained. […]

[2] = system: gastric corpus mucosa cells; assay: MTT: Cell Damaging and Protecting Effect Test; format: cell-based, male Japanese White rabbit; conditions: rabbit gastric mucosa cells, 10^-4 M, 4 hours; smaller value is better; 100 µM
From the text: (§1) MTT: Cell Damaging and Protecting Effect Test
(§2) It is confirmed that there is no toxicity in cell level. Those having toxicity in cell level are inappropriate as an anti-ulcer drug.
(§3) A male Japanese White rabbit (2.5 to 3 kg) was anesthetized to death by Nembutal™ and, immediately thereafter, its stomach was removed. The greater curvature of the stomach was incised so as to remove the stomach contents therefrom. After the mucosal surface was washed with HBSS (Hank's Balanced Salt Solution), the stomach in ice-cooled HBSS was transferred to a laboratory. Then, after the pyloric antrum was removed, the gastric corpus mucosa was separated by a spatula and then minced into 2 to 3 mm pieces in BME (Basal Medium Eagle). Thereafter, these pieces were shaken at 120 to 130 cycles/minute for 15 minutes at 37° C. in BME 60 ml containing 280 U/ml of dispase and 30 to 50 U/mil of collagenase. Here, the concentration of collagenase was appropriately changed for each lot in view of the state of cells. The pieces were washed twice with EBSS (Earle's Balanced Salt Solution) containing 1 mM of EDTA and then shaken in MEM (Minimum Essential Medium) containing 1 mM of EDTA at 37° C. for 5 minutes. Subsequently, they were shaken in the dispase and collagenase having the same concentrations as those mentioned above for 15 minutes so as to remove the supernatant and then further shaken at 37° C. for 50 to 60 minutes at 120 to 130 cycles/minute. Then, after being washed twice with HBSS, Ham F12 containing 2% of Ultrocer G™ was used to attain the concentration of 1×10^6 cells/ml. Thus formed suspension was dispensed in each well of a 96-well plate by 200 μl. The plate was incubated in the atmosphere composed of 5% CO2 and 95% air at 37° C. for three days so as to attain a confluent state and then subjected to MTT assay.
(§4) The sample compound was dissolved in DMSO so as to attain a concentration of 10^-2 M and then diluted with HBSS containing 2% of Ultrocer G™ so as to attain a final concentration of 10^-4 M. To each group, which 8 wells were used for, 10 μl of MTT reagent was added immediately after 100 μl of the medium in each well was exchanged for same volume of the resulting solution of the sample compound. After being incubated in an atmosphere composed of 5% CO2 and 95% air at 37° C. for 4 hours, thus formed solution was centrifuged and then its supernatant was discarded. Subsequently, 100 μl of 100% ethanol was added to the residue so as to dissolve MTT formazan. Then, the absorbance (OD: 570 to 630) was measured by a microplate reader. This method utilizes a phenomenon in which MTT is changed to MTT formazan only by mitochondria of living cells so as to change color.
(§5) The cell damaging or cell protecting effect of the sample compound at the final concentration of 10^-4 M was expressed as cell damaging rate (%) as follows:
(§6) cell damaging rate (%)={1-(absorbance in sample group/absorbance in control group)}×100
(§7) Accordingly, the smaller value is better in the cell damaging rate.

[3] = system: stress ulcer formation; assay: WIS: Restraint and Water Immersion Stress-Induced Ulcer Inhibition Test; format: in vivo, Male Crj:SD or Slc:SD rats; conditions: for WIS: ulcer formation inhibitory rate: rat, 100 mg/kg orally, 7 hours water immersion stress
Description: WIS: Restraint and Water Immersion Stress-Induced Ulcer Inhibition Test (i) Meaning The degree of inhibition of the stress ulcer formation is tested. (ii) Method Male Crj:SD or Slc:SD rats (6 to 7-weeek-old) were fasted overnight, but allowed free access to water. Each group has 5 to 8 of these rats. The sample compound was dissolved or suspended in an aqueous solution of 0.3% sodium carboxymethylcellulose or 0.05% Tween 80 and then was orally administered (100 mg/10 ml/kg). To a control group, the vehicle was administered. 10 minutes later, the rats were placed in a stress cage and immersed to the level of xiphoid process in a water bath (21° C.) for 7 hours. At the end of the stress, the rats were sacrificed by inhalation of ether or carbon dioxide. Then, the stomach of each was removed, inflated by injecting 10 ml of 5% formalin neutral buffer solution, and immersed in 1% formalin neutral buffer solution for 30 minutes or more to be fixed. The stomach was incised along the greater curvature and then the length of each erosion in the glandular portion was determined under dissecting microscope. The sum of the length of erosions per stomach was defined as ulcer index (UI). (iii) Judgment Standard […]

[4] = MTT: Cell Damaging and Protecting Effect Test; format: cell-based, male Japanese White rabbit; conditions: rabbit, gastric mucosa cells, 10^-4 M, smaller value is better, read-out: MTT: cell damaging rate
From the text: as §1, §2, §3, §4, §5, §6, §7

SMILES	CAP: Acid secretion inhibitory rate [1] [%]	MTT: cell damaging rate [2] [%]	WIS: ulcer formation inhibitory rate [3] [%]	inhibition at 10 µM [1] [%]	cytotoxicity at 4 h, 100 µM [4] [%]	anti-ulcer effect (in words) ([3]; WIS)
CC(C)c1ccc(C(=O)Nc2nnc(SCCN(C(C)C)C(C)C)s2)cc1.Cl [Example 3, 2-(4-isopropylbenzoyl)amino-5-diisopropylaminoethylthio-1,3,4-thiadiazole hydrochloride]	104	-75	96			
CC(C)N(CCSc1nnc(NC(=O)c2ccc(C(C)(C)C)cc2)s1)C(C)C [Example 5, 2-(4-tert-butylbenzoyl)amino-5-diisopropylaminoethylthio-1,3,4-thiadiazole]			63	100	-19	
CCN(CC)CCSc1nnc(NC(=O)c2cc(C(C)(C)C)cc(C(C)(C)C)c2)s1 [Example 6, 2-(3,5-di-tert-butylbenzoyl)amino-5-diethylaminoethylthio-1,3,4-thiadiazol]			81	100	58	sufficient effects
CCN(CC)CCSc1nnc(NC(=O)c2ccc(OC(C)C)cc2)s1 [Example 7, 2-(4-isopropyloxybenzoyl)amino-5-diethylaminoethylthio-1,3,4-thiadiazole]			76	97	46	
CCN(CC)CCSc1nnc(NC(=O)c2ccc(OC(C)(C)C)cc2)s1 [Example 8, 2-(4-tert-butoxybenzoyl)amino-5-diethylaminoethylthio-1,3,4-thiadiazole]			66	99	-11	
CCN(CC)CCSc1nnc(NC(=O)c2ccc(NC(C)(C)C)cc2)s1 [Example 9, 2-(4-tert-butyaminobenzoyl)amino-5-diethylaminoethylthio-1,3,4-thiadiazole]			51	2	-107	
CCN(CC)CCCSc1nnc(NC(=O)c2ccc(OC/C=C(\C)CCC=C(C)C)cc2)s1 [Example 11, 2-(4-geranyloxybenzoyl)amino-5-diethylaminopropylthio-1,3,4-thiadiazole]			65	100	48	
CC(C)=CCC/C(C)=C/COc1ccc(C(=O)Nc2nnc(SCCCN3CCCCC3)s2)cc1 [Example 13, 2-(4-geranyloxybenzoyl)amino-5-piperidinopropylthio-1,3,4-thiadiazole]			51	100	41	
CCCSc1nnc(NC(=O)c2ccc(OC/C=C(\C)CCC=C(C)C)cc2)s1 [Example 16, 2-(4-geranyloxybenzoyl)amino-5-propylthio-1,3,4-thiadiazole]			53		14	
CC(C)=CCC/C(C)=C/COc1ccc(C(=O)Nc2nnc(SCC(C)C)s2)cc1 [Example 17, 2-(4-geranyloxybenzoyl)amino-5-isobutylthio-1,3,4-thiadiazole]			46		-4	
CC(C)=CCC/C(C)=C/COc1ccc(C(=O)Nc2nnc(SCc3ccccc3)s2)cc1 [Example 18, 2-(4-geranyloxybenzoyl)amino-5-benzylthio-1,3,4-thiadiazole]			32		18	
